SMILES strings stand for the structures.

Consider 44 compounds from EP1763509B1, “ALPHA-HELICAL MIMETICS” (THE WALTER AND ELIZA HALL INSTITUTE OF MEDICAL RESEARCH, priority 2004, dated 2006).

For one assay, the target named is T1, Bcl-wΔ29 (Homo sapiens, UniProt Q92843).
T1 construct: GST tagged Bclw ΔC29 protein
T1 sequence (Q92843 1-164 limits assumed): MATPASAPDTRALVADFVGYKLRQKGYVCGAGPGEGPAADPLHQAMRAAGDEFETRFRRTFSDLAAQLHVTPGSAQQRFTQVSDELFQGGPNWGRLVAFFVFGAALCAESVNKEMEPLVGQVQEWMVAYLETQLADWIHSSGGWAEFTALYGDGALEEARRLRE
In words: Alphascreen GST competition binding assay, benzoylurea compounds vs Biotinylated Bim BH3-26 peptide on GST tagged Bclw ΔC29 protein. The settings on record: GST tagged Bclw ΔC29 protein 0.05 nM, Biotinylated Bim BH3-26 peptide 3.0 nM, 4 hours at room temperature; values marked a tested in a separate experiment; n.b. = not binding in the assay conditions. For orientation: In Alpha technology, singlet oxygen from a donor bead excites a nearby acceptor bead.

The next assay addresses T2, Bcl-xLΔ25 (Homo sapiens, UniProt Q07817).
T2 construct: GST tagged Bcl-xL ΔC25 protein
Kind of assay: Alphascreen GST competition binding assay, benzoylurea compounds vs Biotinylated Bim BH3-26 peptide on GST tagged Bcl-xL ΔC25 protein. To be noted: GST tagged Bcl-xL ΔC25 protein 0.6 nM, Biotinylated Bim BH3-26 peptide 5.0 nM, 4 hours at room temperature; n.b. = not binding in the assay conditions.

Another assay concerns the target Mcl-1 (Homo sapiens, UniProt Q07820). In words: Alphascreen GST competition binding assay, benzoylurea compounds vs Biotinylated Bak BH3 peptide on GST tagged Mcl-1 protein. The settings on record: GST tagged Mcl-1 protein 0.4 nM, Biotinylated Bak BH3 peptide 4.0 nM, 4 hours at room temperature; n.b. = not binding in the assay conditions.

Sequence of Mcl-1 (Q07820 whole entry, species assumed): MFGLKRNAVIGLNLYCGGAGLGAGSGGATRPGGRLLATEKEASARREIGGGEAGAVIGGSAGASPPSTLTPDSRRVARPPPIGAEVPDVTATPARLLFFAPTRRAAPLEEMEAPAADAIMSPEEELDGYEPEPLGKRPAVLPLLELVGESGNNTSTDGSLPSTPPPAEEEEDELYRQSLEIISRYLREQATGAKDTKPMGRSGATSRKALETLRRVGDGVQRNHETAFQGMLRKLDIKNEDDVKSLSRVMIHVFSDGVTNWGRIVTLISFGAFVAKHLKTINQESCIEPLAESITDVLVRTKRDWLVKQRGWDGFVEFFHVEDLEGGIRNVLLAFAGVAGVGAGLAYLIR
T2 sequence (Q07817 1-208 limits assumed, stated change not applied): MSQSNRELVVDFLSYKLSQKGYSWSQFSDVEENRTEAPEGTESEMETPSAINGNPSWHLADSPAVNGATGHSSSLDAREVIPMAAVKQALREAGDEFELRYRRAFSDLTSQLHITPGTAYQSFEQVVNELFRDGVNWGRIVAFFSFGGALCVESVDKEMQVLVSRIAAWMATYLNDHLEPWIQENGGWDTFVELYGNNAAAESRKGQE

One may read the IC50 as the concentration at which inhibition is half-maximal. Low readings indicate greater potency in that assay, high ones weaker potency in that assay. In the case of `O=C(O)[C@H](CSCc1ccccc1)NC(=O)N(Cc1ccccc1)C(=O)c1cccc(-c2ccccc2)c1` [(8)], the IC50 on Bcl-wΔ29 stood at 46 µM; on Bcl-xLΔ25, 36.4 µM.
In the case of `Cc1ccc(CN(C(=O)N[C@@H](CSCc2ccccc2)C(=O)O)C(=O)c2ccc(-c3ccccc3)cc2)cc1` [(82)], the 50% inhibitory concentration (IC50) on Bcl-wΔ29 was found to be 45 µM; at Bcl-xLΔ25 it was 27 µM; on Mcl-1 it was 169 µM.
With `COc1ccc(CN(C(=O)N[C@@H](CSCc2ccccc2)C(=O)O)C(=O)c2ccc(-c3ccccc3)cc2)cc1` [(83)], the concentration for half-maximal inhibition (IC50) on Bcl-wΔ29 was 35 µM; at Bcl-xLΔ25, 14 µM; at Mcl-1 it was 77 µM.
In the case of `O=C(O)[C@H](CSCc1ccccc1)NC(=O)N(Cc1ccc(Cl)cc1)C(=O)c1ccc(-c2ccccc2)cc1` [(84)], the half-inhibitory concentration (IC50) on Bcl-wΔ29 came to 27 µM; on Bcl-xLΔ25 it was 11 µM; at Mcl-1, 61 µM.
Consider `O=C(O)[C@H](CSCc1ccccc1)NC(=O)N(Cc1ccc(Cl)c(Cl)c1)C(=O)c1ccc(-c2ccccc2)cc1` [(85)], for which the values for the 50% inhibitory concentration (IC50) on Bcl-wΔ29 and at Mcl-1 were 40 µM and 95 µM, respectively. Besides, at Bcl-xLΔ25, the “Bcl-xLΔ25 IC50 (µM)” value is “n.b.^b”.
Turning to `CCCN(C(=O)N[C@@H](CSCc1ccccc1)C(=O)O)C(=O)c1ccc(/C=C/c2ccccc2)cc1` [(86)], the half-inhibitory concentration (IC50) at Bcl-wΔ29 stood at 82 µM; on Bcl-xLΔ25, 283 µM. Moreover, on Mcl-1, the “Mcl-1 IC50 (µM)” value was “n.b.^b”.
On to `CCCN(C(=O)N[C@@H](CSCc1ccccc1)C(=O)O)C(=O)c1ccc(CCc2ccccc2)cc1` [(89)], for which the IC50 on Bcl-wΔ29 amounted to 50 µM; at Bcl-xLΔ25, 86 µM; on Mcl-1 it was 107 µM.
In the same order, the values of `CCCSC[C@H](NC(=O)N(CCC)C(=O)c1cccc(C#Cc2ccccc2)c1)C(=O)O` [(90)] are 39 µM, 22 µM and 70 µM.
Taken in the same sequence, the figures for `CCCN(C(=O)N[C@@H](CSCC(C)C)C(=O)O)C(=O)c1cccc(C#Cc2ccccc2)c1` [(91)] were 32 µM, 16 µM and 92 µM.
For the compound `CCCN(C(=O)N[C@@H](CSC(C)C)C(=O)O)C(=O)c1cccc(C#Cc2ccccc2)c1` [(92)], the values for the half-inhibitory concentration (IC50) on Bcl-wΔ29 and at Bcl-xLΔ25 were 67 µM and 36 µM, respectively. Besides, on Mcl-1, the “Mcl-1 IC50 (µM)” value is “n.b.^b”.
As for `CCCN(C(=O)N[C@@H](CSc1ccccc1)C(=O)O)C(=O)c1cccc(C#Cc2ccccc2)c1` [(93)], the values for the IC50 at Bcl-wΔ29, on Bcl-xLΔ25 and on Mcl-1 were 26 µM, 27 µM and 53 µM, respectively.
In the same order, the values of `CCCN(C(=O)N[C@@H](CSCCc1ccccc1)C(=O)O)C(=O)c1cccc(C#Cc2ccccc2)c1` [(94)] are 19 µM, 23 µM and 46 µM.
In the same order, the values of `CCCN(C(=O)N[C@@H](CSCc1ccccc1-c1ccccc1)C(=O)O)C(=O)c1cccc(C#Cc2ccccc2)c1` [(96)] are 52 µM, 153 µM and 133 µM.
In the same order, the values of `CCCSC[C@H](NC(=O)N(CCC)C(=O)c1cccc(-c2ccccc2Cl)c1)C(=O)O` [(97)] are 68 µM, 199 µM and 264 µM.
Consider `CCCN(C(=O)N[C@@H](CSCC(C)C)C(=O)O)C(=O)c1cccc(-c2ccccc2Cl)c1` [(98)], for which the 50% inhibitory concentration (IC50) at Bcl-wΔ29 was found to be 32 µM; at Bcl-xLΔ25, 93 µM; on Mcl-1 it was 107 µM.
`CCCN(C(=O)N[C@@H](CSC(C)C)C(=O)O)C(=O)c1cccc(-c2ccccc2Cl)c1` [(99)]: the half-maximal inhibitory concentration (IC50) at Bcl-wΔ29 is 60 µM; at Bcl-xLΔ25 it was 163 µM; on Mcl-1, 168 µM.
In the same order, the values of `CCCN(C(=O)N[C@@H](CSc1ccccc1)C(=O)O)C(=O)c1cccc(-c2ccccc2Cl)c1` [(100)] are 18 µM, 48 µM and 52 µM.
In the same order, the values of `CCCN(C(=O)N[C@@H](CSCCc1ccccc1)C(=O)O)C(=O)c1cccc(-c2ccccc2Cl)c1` [(101)] are 19 µM, 42 µM and 55 µM.
Turning to `CCCN(C(=O)N[C@@H](CSCCCc1ccccc1)C(=O)O)C(=O)c1cccc(-c2ccccc2Cl)c1` [(102)], the IC50 on Bcl-wΔ29 was determined as 18 µM; on Bcl-xLΔ25 it was 50 µM; on Mcl-1, 51 µM.
In the same order, the values of `CCCN(C(=O)N[C@@H](CSCc1ccccc1-c1ccccc1)C(=O)O)C(=O)c1cccc(-c2ccccc2Cl)c1` [(103)] are 18 µM, 53 µM and 36 µM.
In the same order, the values of `CCCN(C(=O)Cc1cccc(-c2ccccc2)c1)C(=O)N[C@@H](CSCc1ccccc1)C(=O)O` [(104)] are 205 µM, 187 µM and 267 µM.
For the compound `CCCN(C(=O)Cc1ccccc1)C(=O)N[C@@H](CSCc1ccccc1)C(=O)O` [(105)], the IC50 at Bcl-wΔ29 was determined as 71 µM; at Bcl-xLΔ25 it was 183 µM; at Mcl-1 it was 164 µM.
In the same order, the values of `CC(C)Cc1cccc(C(=O)N(Cc2ccccc2)C(=O)N[C@@H](CSCc2ccccc2)C(=O)O)c1` [(107)] are 37 µM, 70 µM and 73 µM.
In the same order, the values of `CC(C)Cc1cccc(C(=O)N(CCc2ccccc2)C(=O)N[C@@H](CSCc2ccccc2)C(=O)O)c1` [(108)] are 49 µM, 87 µM and 72 µM.
Taken in the same sequence, the figures for `CC(C)CCc1cccc(C(=O)N(Cc2ccccc2)C(=O)N[C@@H](CSCc2ccccc2)C(=O)O)c1` [(109)] were 29 µM, 81 µM and 65 µM.
Turning to `CC(C)CCc1cccc(C(=O)N(CCc2ccccc2)C(=O)N[C@@H](CSCc2ccccc2)C(=O)O)c1` [(110)], the IC50 at Bcl-wΔ29 was determined as 37 µM; at Bcl-xLΔ25, 85 µM; on Mcl-1 it was 64 µM.
Taken in the same sequence, the figures for `CCCCSC[C@H](NC(=O)N(Cc1ccccc1)C(=O)c1cccc(CC(C)C)c1)C(=O)O` [(111)] were 36 µM, 115 µM and 86 µM.
In the same order, the values of `CCCCSC[C@H](NC(=O)N(CCc1ccccc1)C(=O)c1cccc(CC(C)C)c1)C(=O)O` [(112)] are 40 µM, 119 µM and 112 µM.
Taken in the same sequence, the figures for `CCCCSC[C@H](NC(=O)N(Cc1ccccc1)C(=O)c1cccc(CCC(C)C)c1)C(=O)O` [(113)] were 28 µM, 94 µM and 65 µM.
With `CCCCSC[C@H](NC(=O)N(CCc1ccccc1)C(=O)c1cccc(CCC(C)C)c1)C(=O)O` [(114)], the figures for the 50% inhibitory concentration (IC50) at Bcl-wΔ29, on Bcl-xLΔ25 and at Mcl-1 were 32 µM, 85 µM and 58 µM, respectively.
As for `CCCN(C(=O)N[C@@H](CSCc1ccccc1)C(=O)O)C(=O)c1cccc(C#Cc2ccccc2[N+](=O)[O-])c1` [(135)], the IC50 turned out to be 32 µM on Bcl-xLΔ25 and 57 µM at Mcl-1.
For the compound `CCCN(C(=O)N[C@@H](CSCc1ccccc1)C(=O)O)C(=O)c1cccc(C#CCC(C)C)c1` [(136)], the half-maximal inhibitory concentration (IC50) on Bcl-xLΔ25 stood at 23 µM; on Mcl-1, 204 µM.
Taken in the same sequence, the figures for `CCCN(C(=O)N[C@@H](CSCC(C)C)C(=O)O)C(=O)c1cccc(C#Cc2ccc(F)cc2)c1` [(137)] were 9.5 µM and 132 µM.
In the same order, the values of `CCCN(C(=O)N[C@@H](CSCC(C)C)C(=O)O)C(=O)c1cccc(C#Cc2ccc(Cl)cc2)c1` [(138)] are 26 µM and 146 µM.
In the same order, the values of `CCCN(C(=O)N[C@@H](CSCC(C)C)C(=O)O)C(=O)c1cccc(C#Cc2ccc(Br)cc2)c1` [(139)] are 28 µM and 80 µM.
Take `CCCN(C(=O)N[C@@H](CSCC(C)C)C(=O)O)C(=O)c1cccc(C#Cc2cccc(F)c2)c1` [(140)]: at Bcl-xLΔ25, the IC50 worked out at 44 µM. Also, the “Mcl-1 IC50 (µM)” value at Mcl-1 was “n.b.^b”.
Regarding `CCCN(C(=O)N[C@@H](CSCC(C)C)C(=O)O)C(=O)c1cccc(C#Cc2cccc(Cl)c2)c1` [(141)], the values for the concentration for half-maximal inhibition (IC50) on Bcl-xLΔ25 and at Mcl-1 were 28 µM and 84 µM, respectively.
Taken in the same sequence, the figures for `CCCN(C(=O)N[C@@H](CSCC(C)C)C(=O)O)C(=O)c1cccc(C#Cc2cccc(Br)c2)c1` [(142)] were 32 µM and 70 µM.
In the same order, the values of `CCCN(C(=O)N[C@@H](CSCC(C)C)C(=O)O)C(=O)c1cccc(C#Cc2ccccc2C)c1` [(143)] are 30 µM and 74 µM.
Taken in the same sequence, the figures for `CCCN(C(=O)N[C@@H](CSCC(C)C)C(=O)O)C(=O)c1cccc(C#Cc2cccc(C)c2)c1` [(144)] were 39 µM and 66 µM.
Take `CCCN(C(=O)N[C@@H](CSCC(C)C)C(=O)O)C(=O)c1cccc(C#Cc2ccc(C)cc2)c1` [(145)]: the concentration for half-maximal inhibition (IC50) on Bcl-xLΔ25 was found to be 48 µM; at Mcl-1 it was 92 µM.
In the case of `CCCN(C(=O)N[C@@H](CSCC(C)C)C(=O)O)C(=O)c1cccc(C#Cc2ccccc2OC)c1` [(146)], the half-maximal inhibitory concentration (IC50) at Bcl-xLΔ25 was found to be 46 µM. In addition, the “Mcl-1 IC50 (µM)” value at Mcl-1 was “n.b.^b”.
Turning to `CCCN(C(=O)N[C@@H](CSCC(C)C)C(=O)O)C(=O)c1cccc(C#Cc2ccc(OC)cc2)c1` [(147)], the half-inhibitory concentration (IC50) on Bcl-xLΔ25 stood at 50 µM; at Mcl-1, 85 µM.
Taken in the same sequence, the figures for `CCCN(C(=O)N[C@@H](CSCC(C)C)C(=O)O)C(=O)c1cccc(C#Cc2ccc(Oc3ccccc3)cc2)c1` [(148)] were 172 µM and 71 µM.
